Publication PMC8763243, “Synthesis of Novel Suramin Analogs With Anti-Proliferative Activity via FGF1 and FGFRD2 Blockade” (Frontiers in Chemistry, 2022)
Values joined by “and” are separate entries in the source; they are usually repeats but may differ in a detail not shown here. Identical values can stand only once.

Legend:
FGF1 = biological target: T1, FGF1 (Homo sapiens, UniProt P05230); test: Fluorescence spectroscopy binding constant of FGF1 and suramin derivatives; conditions: fluorescence quenching, 5 µM FGF1, non-linear regression with Stern–Volmer equation, pH 6.5
T1 construct: made in house
Experimental: The binding constant Kd was calculated for FGF1 and the five derivatives in a buffer containing 10% D2O, 50 mM AMS, 20 mM phosphate buffer, and 50 mM NaCl at pH 6.5 using an F-2500 Hitachi fluorescence spectrophotometer.
[…] has tremendous significance for biochemical application because it provides valuable knowledge about the probability of quencher activity. The anti-mitogenic activity of the five compounds was achieved by the same mechanism in which suramin inhibits the mitogenic activity of FGF1. A non-linear regression curve was plotted for the relative intensities of activity versus drug concentration using the Stern–Volmer equation (Eq. 1). log(F0−F)/F=logK+nlog[Q], (1)
where F0 represents the fluorescence intensity in the absence of the compounds, and F represents the fluorescence intensity in the presence of the [Q] concentration of the compounds.
Increasing concentrations of these five suramin derivatives were added to a solution containing 5 µM FGF1. A reduction in the fluorescence intensity was reported for all five suramin derivatives. The Stern–Volmer equation was used to calculate the binding constant between FGF1 and compounds 14, 15, 17, 18, and 21 for relative intensities versus the total concentration in a non-linear regression curve.

[1] = Exposure stability study by 1H NMR in DMSO-d6 and D2O; assay type: physicochemical; conditions: 0.017 mol/L in DMSO-d6 and D2O, 11 days
Experimental: The stability of the compounds was verified in both aqueous and DMSO solutions. In aqueous medium, the stability of the suramin derivatives 15 and 18 were considered to verify the stability. A control experiment consisting of a DMSO-d 6 (0.017 mol/L) solution of 15 and a D2O solution of 15 (0.017 mol/L) was maintained on the laboratory bench. All experiments were performed in NMR tubes containing 0.017 mol/L solutions of compounds 15 and 18 in DMSO-d 6 and D2O, respectively. NMR spectra were recorded over 11 days (initially daily for 1 week).
10 mg of the newly synthesized compound was diluted in 500 µL DMSO-d 6 under investigation in a 5-mm NMR tube. The procedure was maintained as it is for 11 days in the solution. The ^1H NMR spectrum was recorded daily for 4 days up to 11 days.
10 mg of the novel compound was diluted in 500 µL D2O under investigation in a 5-mm NMR tube. The procedure was maintained as it is for 11 days in the solution. The ^1H NMR spectrum was recorded daily for 4 days up to 11 days.

[2] = WST-1 assay, cytotoxicity in tumorigenic cells; assay type: cell-based, human; conditions: human; MCF-7 cells, 48 h, SigmaPlot; read-out: estimated IC50 (cytotoxicity)
Experimental: (§1) The water-soluble tetrazolium salt (WST-1) assay was performed to assess the effects of the compounds on cell proliferation and cytotoxicity. DMEM/F12 containing 10% FBS was used for the cell culture, and incubation was performed in 5% CO2 till the logarithmic growth phase was achieved. On the day before the experiment, the cells were trypsinized and seeded in a 96-well plate at a density of 5000 cells/well. For the FGF1-stimulated cell proliferation assay, the cells were then incubated for 24 h in a serum-free medium containing 0.1% bovine serum albumin (BSA). Serum-starved cells with or without a specified concentration of suramin, 14, 15, 17, 18, 21, and FGFRD2 were stimulated with 100 nM of FGF1 again for 48 h. For the purpose of the cytotoxicity assay, the cells were treated with an increased concentration of suramin and compounds 14, 17, 15, 18, and 21 (Figure 6) for 48 h. Also, 1/10 of the volume of WST-1 cell reagent was inserted in every well and maintained at 37°C for another 4 h before harvesting. There was gentle agitation of the medium in the cell culture plate for 10 min using a shaker. A Synergy 2 microplate reader (BioTek Instruments, Inc., VT, United States) was used to measure the absorbance at 450 nm. The relative absorbance was compared with the control treatment to determine the relative cell number.
(§2) […] […] The reason for the higher cytotoxicity was the presence of methyl groups on the suramin structure ([Martello et al., 2001]).
(§3) Suramin-induced neuropathy may depend on the effects on calcium (Ca^2+) homeostasis as a potential pathological mechanism, and the full or partial positive charge of the element when directly attached to the ring at each of the sulphonic groups (HSO3). These interactions exert a moderate to strong electron-withdrawing inductive effect, which may be responsible for the observed suramin cytotoxicity ([Prasetyaningrum et al., 2018]; [Von Der Ahe et al., 2018]). The cytotoxicity of the synthesized analogs was lower as there were methyl groups and no sulfonic acid groups attached to the suramin backbone. The IC50 values of the synthesized compounds in MCF-7 breast cancer cells were analyzed using SigmaPlot software.

MCF-7 cells = test: WST-1 assay, cytotoxicity in tumorigenic cells; assay type: cell-based, human; conditions: for Mean (Blank 450) / Fold (mean) / Blank 450 / Fold: S8; for Fold (mean): relative to control; for Blank 450: single replicate absorbance; for Fold: single replicate relative to control; for cytotoxicity compared with suramin: MCF-7 cells, 1-100 µM, 48 h, especially at concentrations higher than 10 µM
Experimental: as §1, §2, §3

[3] = WST-1 assay, cytotoxicity in normal breast epithelial cell line (non-tumorigenic); assay type: cell-based; conditions: human; non-tumorigenic MCF-10A cells; read-out: estimated IC50 (cytotoxicity)
Experimental: as §1
In order to gain some insight about the selectivity of the compounds between tumorigenic and non-tumorigenic cells, the cytotoxicity was also being evaluated against normal breast cell lines by examining the cytotoxicity of suramin and its derivatives, compounds 15, 18, and 21, in a normal breast epithelial cell line (non-tumorigenic), MCF-10A. […] Compared to their cytotoxicity in tumorigenic MCF-7 cells (Figure 6), the estimated IC50 values in MCF-10A were higher than those in MCF-7 cells. […] However, the estimated IC50 value of suramin and its derivatives in both non-tumorigenic MCF-10A and tumorigenic MCF-7 cells were over 100 μM. The effective concentrations of suramin and its derivatives to attenuate FGF1-stimulated cell proliferation in MCF-7 cells were around 1 μM (Figure 5), which is non-toxic concentration to both MCF-7 cells and MCF-10A cells. […] Therefore, in addition to the specificity of each drug, the selectivity of suramin and its derivatives to disrupt the FGF1/FGFR-mediated breast cancer growth might rely on the overexpression or amplification of FGFR2 in breast cancer cells, but not in normal cells, and the secreted FGF1 ligand by autocrine or paracrine effects from cancer cells or their surrounding stroma cells or adipocytes (tumor microenvironment). The statistical data for the cytotoxicity are shown in Supplementary Figure S8.

T1 sequence (P05230 whole entry): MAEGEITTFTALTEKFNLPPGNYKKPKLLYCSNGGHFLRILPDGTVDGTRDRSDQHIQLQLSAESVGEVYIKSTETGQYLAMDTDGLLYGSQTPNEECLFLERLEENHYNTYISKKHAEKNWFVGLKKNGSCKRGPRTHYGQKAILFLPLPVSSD

Row | Structure (SMILES) | Kd (FGF1) | stability in solution (1H NMR) [1] | IC50 at 48 h [2] | Mean (Blank 450) (MCF-7 cells; 1 uM) | Fold (mean) (MCF-7 cells; 1 uM) | Blank 450 (MCF-7 cells; 1 uM) | Fold (MCF-7 cells; 1 uM) | Mean (Blank 450) (MCF-7 cells; 5 uM) | Fold (mean) (MCF-7 cells; 5 uM) | Blank 450 (MCF-7 cells; 5 uM) | Fold (MCF-7 cells; 5 uM) | Mean (Blank 450) (MCF-7 cells; 10 uM) | Fold (mean) (MCF-7 cells; 10 uM) | Blank 450 (MCF-7 cells; 10 uM) | Fold (MCF-7 cells; 10 uM) | Mean (Blank 450) (MCF-7 cells; 50 uM) | Fold (mean) (MCF-7 cells; 50 uM) | Blank 450 (MCF-7 cells; 50 uM) | Fold (MCF-7 cells; 50 uM) | Mean (Blank 450) (MCF-7 cells; 100 uM) | also measured
1 | O=C(Nc1ccc(C(=O)Nc2ccc(C(=O)Nc3cc(S(=O)(=O)O)cc4cc(S(=O)(=O)O)cc(S(=O)(=O)O)c34)cc2)cc1)Nc1ccc(C(=O)Nc2ccc(C(=O)Nc3cc(S(=O)(=O)O)cc4cc(S(=O)(=O)O)cc(S(=O)(=O)O)c34)cc2)cc1 [Compound 18, Sodium 8,8'-((4,4'-((4,4'-(carbonylbis (azanediyl))bis (benzoyl))bis (azanediyl))bis (benzoyl))bis(azanediyl)) bis (naphthalene-1,3,6-trisulfonate)] | 15.5 µM | remarkably stable | > 100 µM | 1.224 | 1.05 | 1.234 and 1.224 and 1.182 and 1.256 | 1.059 and 1.050 and 1.014 and 1.078 | 1.176 | 1.01 | 1.176 and 1.214 and 1.141 and 1.173 | 1.009 and 1.042 and 0.979 and 1.007 | 1.160 | 1.00 | 1.108 and 1.161 and 1.207 and 1.165 | 0.951 and 0.996 and 1.036 and 1.000 | 1.139 | 0.98 | 1.184 and 1.149 and 1.053 and 1.169 | 1.016 and 0.986 and 0.904 and 1.003 | 1.057 | Fold (mean) (MCF-7 cells; 100 uM): 0.91; Blank 450 (MCF-7 cells; 100 uM): 1.098 and 1.004 and 1.043 and 1.081; Fold (MCF-7 cells; 100 uM): 0.942 and 0.862 and 0.895 and 0.928; cytotoxicity compared with suramin (MCF-7 cells): less toxic; IC50 at 48 h [3]: 653.4 ± 2.31 µM
2 | O=C(Nc1ccc(C(=O)Nc2cc(S(=O)(=O)[O-])cc3cc(S(=O)(=O)[O-])cc(S(=O)(=O)[O-])c23)cc1)Nc1ccc(C(=O)Nc2cc(S(=O)(=O)[O-])cc3cc(S(=O)(=O)[O-])cc(S(=O)(=O)[O-])c23)cc1.[Na+].[Na+].[Na+].[Na+].[Na+].[Na+] [Compound 15, Sodium 8,8'-((4,4'-(carbonylbis (azanediyl))bis (benzoyl))bis (azanediyl))bis (naphthalene-1,3,6-trisulfonate)] | 20.9 µM | remarkably stable | > 100 µM | 1.163 | 1.00 | 1.143 and 1.162 and 1.195 and 1.152 | 0.981 and 0.997 and 1.026 and 0.989 | 1.146 | 0.98 | 1.161 and 1.116 and 1.206 and 1.101 | 0.996 and 0.958 and 1.035 and 0.945 | 1.122 | 0.96 | 1.151 and 1.117 and 1.059 and 1.162 | 0.988 and 0.959 and 0.909 and 0.997 | 0.982 | 0.84 | 0.998 and 1.012 and 0.955 and 0.961 | 0.856 and 0.868 and 0.820 and 0.825 | 0.880 | Fold (mean) (MCF-7 cells; 100 uM): 0.75; Blank 450 (MCF-7 cells; 100 uM): 0.927 and 0.887 and 0.833 and 0.872; Fold (MCF-7 cells; 100 uM): 0.796 and 0.761 and 0.715 and 0.748; cytotoxicity compared with suramin (MCF-7 cells): less toxic; IC50 at 48 h [3]: 221 ± 3.57 µM
